Measured values as given in ChEMBL document CHEMBL3727350, “Agents and methods for treating ischemic and other diseases” (2014).
Activity calls are given as the source filed them.

Experiments:
[1] = target: Transient receptor potential cation channel subfamily M member 7 (Mus musculus) (UniProt Q923J1); assay: Inhibition of TRPM7 in mouse primary neuronal cells exposed to oxygen glucose deprivation condition for 1 to 3 hrs assessed as reduction in TRPM7-mediated anoxic cell death dosed after oxygen glucose deprivation condition by propidium iodide uptake assay; settings: Primary neuron
MDA-MB-231 [2] = assay: Inhibition of cell proliferation of human MDA-MB-231 cells at 10 uM incubated for 48 to 96 hrs; assay type: functional
[3] = target: Transient receptor potential cation channel subfamily M member 7 (Mus musculus) (UniProt Q923J1); assay: Inhibition of Tet-induced Flag-tagged mouse TRPM7 expressed in HEK293 cells assessed as reduction in channel currents at 0.3 to 30 uM by whole cell patch clamp assay; assay type: cell-based
B16-F10 = assay: Inhibition of cell proliferation of mouse B16F10 cells at 1.25 to 10 uM incubated for 72 hrs by SRB assay; assay type: functional, cell-based
[4] = target: Transient receptor potential cation channel subfamily M member 7 (Rattus norvegicus) (UniProt Q925B3); assay: Inhibition of TRPM7 in rat H9C2 cells assessed as reduction in channel currents at 0.3 to 30 uM by whole cell patch clamp assay; assay type: cell-based
[5] = target: Transient receptor potential cation channel subfamily M member 7 (Rattus norvegicus) (UniProt Q925B3); assay: Inhibition of TRPM7 in rat retinal explants exposed to oxygen glucose deprivation condition for 1 hr assessed as protection against TRPM7-mediated cell death at by propidium iodide uptake assay
[6] = target: Transient receptor potential cation channel subfamily M member 7 (Mus musculus) (UniProt Q923J1); assay: Inhibition of Tet-induced Flag-tagged mouse TRPM7 expressed in HEK293 cells assessed as inhibition of channel-mediated cell death in presence of Mg2+ incubated for 24 to 48 hrs by propidium iodide uptake assay; assay type: cell-based; parameters: concentration or dose not given beside the values; settings: concentration not given here
[7] = target: Transient receptor potential cation channel subfamily M member 7 (Mus musculus) (UniProt Q923J1); assay: Inhibition of TRPM7 in mouse primary neuronal cells exposed to oxygen glucose deprivation condition for 1 to 3 hrs assessed as reduction in TRPM7-mediated anoxic cell death dosed before oxygen glucose deprivation condition by propidium iodide uptake assay; settings: Primary neuron
Y79 = assay: Inhibition of cell proliferation of human Y79 cells at 10 uM incubated for 48 to 96 hrs; assay type: functional
[8] = target: Transient receptor potential cation channel subfamily M member 7 (Mus musculus) (UniProt Q923J1); assay: Inhibition of TRPM7 in mouse mouse primary cortical neurons exposed to 2 hrs oxygen glucose deprivation condition assessed as reduction in TRPM7-mediated anoxic cell death measured after 20 hrs by propidium iodide uptake assay; assay type: cell-based; settings: Cerebral cortex neuron
Mus musculus [9] = organism: Mus musculus; assay: Inhibition of calcium channel in mouse cortical neurons assessed as effect on Ca2+ currents; assay type: functional
[10] = target: Transient receptor potential cation channel subfamily M member 7 (Rattus norvegicus) (UniProt Q925B3); assay: Inhibition of TRPM7 in Sprague-Dawley rat retinal explants subjected to 1 hr oxygen-glucose deprivation assessed as reduction in retinal ischemia at 5 uM
MCF7 = assay: Inhibition of cell proliferation of human MCF7 cells at 10 uM incubated for 48 to 96 hrs; assay type: functional
Mus musculus [11] = organism: Mus musculus; assay: Inhibition of potassium channel in mouse cortical neurons assessed as reduction in potassium currents
[12] = target: Transient receptor potential cation channel subfamily M member 7 (Rattus norvegicus) (UniProt Q925B3); assay: Inhibition of TRPM7 in Sprague-Dawley rat retinal explants dissociated and subjected to 1 hr oxygen-glucose deprivation assessed as reduction in retinal cell death at 1 and 5 uM
[13] = Inhibition of cell proliferation of human DMS53 cells at 10 uM incubated for 48 to 96 hrs; assay type: functional; settings: DMS-53
H9c2 [14] = assay: Toxicity against rat H9c2 cells at 5 uM; assay type: cell-based; settings: h9c2, 5 µM
H9c2 [15] = assay: Toxicity against rat H9c2 cells at 10 uM; assay type: cell-based; settings: h9c2, 10 µM
[16] = Inhibition of cell proliferation of mouse NIH/3T3 cells at 1.25 to 10 uM incubated for 72 hrs by propidium iodide staining assay; assay type: cell-based; settings: nih3t3, 72 h
B16-F1 = assay: Inhibition of cell proliferation of mouse B16-F1 cells at 1.25 to 10 uM incubated for 72 hrs by SRB assay; assay type: functional, cell-based
Mus musculus [17] = organism: Mus musculus; assay: Inhibition of sodium channel in mouse cortical neurons assessed as effect on Na+ currents
HeLa = assay: Inhibition of cell proliferation of human HeLa cells at 10 uM incubated for 48 to 96 hrs; assay type: functional
SW13 [18] = assay: Inhibition of cell proliferation of human SW13 cells at 10 uM incubated for 48 to 96 hrs; assay type: functional
SW13 [19] = assay: Inhibition of cell proliferation of human SW13 cells at 1.25 to 10 uM incubated for 72 hrs by SRB assay; assay type: functional, cell-based
[20] = target: Transient receptor potential cation channel subfamily M member 7 (Rattus norvegicus) (UniProt Q925B3); assay: Inhibition of TRPM7 in rat H9C2 cells exposed to oxygen glucose deprivation condition for 1 to 6 hrs assessed as reduction in TRPM7-mediated anoxic cell death in presence of 1 uM nifedipine by propidium iodide uptake assay; assay type: cell-based
[21] = Inhibition of cell proliferation of mouse B16F10 cells at 10 uM incubated for 48 to 96 hrs; assay type: functional; settings: B16-F10
U2OS = assay: Inhibition of cell proliferation of human U2OS cells at 10 uM incubated for 48 to 96 hrs; assay type: functional
MDA-MB-231 [22] = assay: Inhibition of cell proliferation of human MDA-MB-231 cells at 1.25 to 10 uM incubated for 72 hrs by SRB assay; assay type: functional, cell-based
[23] = Inhibition of cell proliferation of mouse B16-F1 cells at 10 uM incubated for 48 to 96 hrs; assay type: functional
[24] = target: Transient receptor potential cation channel subfamily M member 7 (Rattus norvegicus) (UniProt Q925B3); assay: Inhibition of TRPM7 in cultured rat retinal ganglion cells exposed to oxygen glucose deprivation condition for 3 hrs assessed as protection against TRPM7-mediated cell death at by propidium iodide uptake assay; parameters: scale not given: the % may be the effect or the level left

Chain of Transient receptor potential cation channel subfamily M member 7 (Rattus norvegicus) (Q925B3 whole entry): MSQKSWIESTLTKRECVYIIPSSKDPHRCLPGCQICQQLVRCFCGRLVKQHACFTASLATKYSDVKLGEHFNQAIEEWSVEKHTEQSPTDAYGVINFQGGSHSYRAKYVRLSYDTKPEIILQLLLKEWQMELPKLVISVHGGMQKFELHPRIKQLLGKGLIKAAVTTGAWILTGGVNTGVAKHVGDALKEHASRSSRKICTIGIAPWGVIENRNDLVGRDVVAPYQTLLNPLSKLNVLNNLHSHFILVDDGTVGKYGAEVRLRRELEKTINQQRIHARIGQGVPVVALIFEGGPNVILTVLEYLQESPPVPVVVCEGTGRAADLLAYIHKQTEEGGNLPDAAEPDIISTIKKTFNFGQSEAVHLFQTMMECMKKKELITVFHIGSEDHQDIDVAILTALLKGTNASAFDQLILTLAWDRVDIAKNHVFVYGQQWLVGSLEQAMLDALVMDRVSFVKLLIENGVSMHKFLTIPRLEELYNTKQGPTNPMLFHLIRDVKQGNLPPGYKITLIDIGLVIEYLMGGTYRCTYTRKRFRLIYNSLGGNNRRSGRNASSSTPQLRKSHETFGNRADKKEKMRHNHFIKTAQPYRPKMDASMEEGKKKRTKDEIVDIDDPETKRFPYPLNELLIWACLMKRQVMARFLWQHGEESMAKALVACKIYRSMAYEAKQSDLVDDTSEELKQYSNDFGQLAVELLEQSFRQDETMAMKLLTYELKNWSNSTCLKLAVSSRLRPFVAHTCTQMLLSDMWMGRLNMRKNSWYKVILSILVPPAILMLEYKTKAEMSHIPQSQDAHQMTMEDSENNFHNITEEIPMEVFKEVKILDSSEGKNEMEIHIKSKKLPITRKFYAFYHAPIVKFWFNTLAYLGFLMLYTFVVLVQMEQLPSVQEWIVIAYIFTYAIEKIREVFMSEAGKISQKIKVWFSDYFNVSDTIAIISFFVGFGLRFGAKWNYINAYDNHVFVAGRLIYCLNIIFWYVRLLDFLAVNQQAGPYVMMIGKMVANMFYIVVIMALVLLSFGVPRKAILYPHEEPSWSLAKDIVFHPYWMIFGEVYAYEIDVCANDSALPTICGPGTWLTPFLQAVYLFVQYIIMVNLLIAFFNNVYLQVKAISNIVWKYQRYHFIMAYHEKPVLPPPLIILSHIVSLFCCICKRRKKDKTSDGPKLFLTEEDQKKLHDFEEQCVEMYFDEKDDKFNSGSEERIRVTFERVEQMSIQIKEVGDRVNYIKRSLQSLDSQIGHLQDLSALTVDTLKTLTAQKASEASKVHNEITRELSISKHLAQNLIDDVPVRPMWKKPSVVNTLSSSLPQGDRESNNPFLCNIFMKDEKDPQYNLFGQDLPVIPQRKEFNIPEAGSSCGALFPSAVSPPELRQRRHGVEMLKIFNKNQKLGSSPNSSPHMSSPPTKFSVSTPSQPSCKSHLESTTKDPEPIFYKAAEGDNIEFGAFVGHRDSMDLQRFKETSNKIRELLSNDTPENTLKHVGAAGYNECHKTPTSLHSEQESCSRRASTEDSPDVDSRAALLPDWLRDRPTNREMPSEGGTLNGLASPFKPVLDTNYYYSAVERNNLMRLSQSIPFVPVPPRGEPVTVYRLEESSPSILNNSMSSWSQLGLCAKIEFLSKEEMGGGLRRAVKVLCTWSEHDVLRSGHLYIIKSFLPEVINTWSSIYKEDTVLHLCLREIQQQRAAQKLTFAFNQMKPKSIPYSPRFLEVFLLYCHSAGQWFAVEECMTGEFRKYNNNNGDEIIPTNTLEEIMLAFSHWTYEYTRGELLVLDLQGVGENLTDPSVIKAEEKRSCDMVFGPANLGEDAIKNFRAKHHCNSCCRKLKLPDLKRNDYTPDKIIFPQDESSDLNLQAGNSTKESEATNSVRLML
Chain of Transient receptor potential cation channel subfamily M member 7 (Mus musculus) (Q923J1 whole entry): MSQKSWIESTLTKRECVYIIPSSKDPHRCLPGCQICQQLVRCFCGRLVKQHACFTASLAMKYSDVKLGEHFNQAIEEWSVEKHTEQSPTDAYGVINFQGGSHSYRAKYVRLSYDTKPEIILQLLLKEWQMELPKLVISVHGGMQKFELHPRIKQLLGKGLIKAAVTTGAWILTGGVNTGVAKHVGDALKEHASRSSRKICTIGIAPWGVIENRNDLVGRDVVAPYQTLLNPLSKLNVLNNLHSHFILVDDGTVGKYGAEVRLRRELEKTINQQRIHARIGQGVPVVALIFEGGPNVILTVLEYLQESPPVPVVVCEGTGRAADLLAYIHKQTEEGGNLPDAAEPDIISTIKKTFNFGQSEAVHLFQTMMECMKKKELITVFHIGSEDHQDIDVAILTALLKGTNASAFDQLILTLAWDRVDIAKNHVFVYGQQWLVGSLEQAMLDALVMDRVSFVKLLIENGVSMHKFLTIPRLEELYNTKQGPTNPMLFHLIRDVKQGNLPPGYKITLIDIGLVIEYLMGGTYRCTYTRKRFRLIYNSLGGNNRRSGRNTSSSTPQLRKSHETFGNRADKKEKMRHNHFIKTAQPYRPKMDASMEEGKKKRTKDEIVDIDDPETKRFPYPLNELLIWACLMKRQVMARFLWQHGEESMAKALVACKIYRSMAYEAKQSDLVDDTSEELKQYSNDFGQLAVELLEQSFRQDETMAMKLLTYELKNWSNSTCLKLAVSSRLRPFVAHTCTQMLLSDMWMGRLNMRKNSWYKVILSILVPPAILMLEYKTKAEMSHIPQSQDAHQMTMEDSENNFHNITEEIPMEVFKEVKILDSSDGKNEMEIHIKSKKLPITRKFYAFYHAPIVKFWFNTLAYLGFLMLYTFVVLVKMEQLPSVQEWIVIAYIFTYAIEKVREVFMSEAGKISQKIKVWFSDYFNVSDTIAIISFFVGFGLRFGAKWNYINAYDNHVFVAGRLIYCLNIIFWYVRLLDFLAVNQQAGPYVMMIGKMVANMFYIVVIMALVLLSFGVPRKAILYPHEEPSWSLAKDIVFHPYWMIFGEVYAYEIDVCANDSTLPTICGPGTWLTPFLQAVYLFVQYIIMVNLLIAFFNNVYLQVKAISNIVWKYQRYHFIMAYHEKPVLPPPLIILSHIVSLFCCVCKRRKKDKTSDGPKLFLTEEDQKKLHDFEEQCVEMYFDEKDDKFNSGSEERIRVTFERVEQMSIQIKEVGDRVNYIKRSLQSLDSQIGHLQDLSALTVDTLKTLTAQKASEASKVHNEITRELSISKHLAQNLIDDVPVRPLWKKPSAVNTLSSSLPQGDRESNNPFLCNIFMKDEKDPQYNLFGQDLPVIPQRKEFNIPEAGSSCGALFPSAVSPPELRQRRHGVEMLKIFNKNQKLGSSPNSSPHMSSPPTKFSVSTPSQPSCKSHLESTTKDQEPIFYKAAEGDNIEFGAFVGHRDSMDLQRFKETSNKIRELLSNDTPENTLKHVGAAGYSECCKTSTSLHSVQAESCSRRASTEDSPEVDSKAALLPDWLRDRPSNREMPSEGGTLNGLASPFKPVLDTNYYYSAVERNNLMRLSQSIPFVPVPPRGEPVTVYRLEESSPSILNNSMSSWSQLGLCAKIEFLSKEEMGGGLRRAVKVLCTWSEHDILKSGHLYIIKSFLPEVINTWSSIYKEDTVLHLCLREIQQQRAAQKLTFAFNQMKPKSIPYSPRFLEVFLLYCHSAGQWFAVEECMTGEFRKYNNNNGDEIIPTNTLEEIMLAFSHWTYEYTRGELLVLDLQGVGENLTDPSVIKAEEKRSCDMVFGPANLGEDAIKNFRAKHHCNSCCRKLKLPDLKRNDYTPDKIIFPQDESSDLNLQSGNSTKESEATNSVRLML

O=C(Nc1ccc(F)cc1)C(Sc1ccc(Cl)cc1)c1ccccc1 (stereo not given)
> 20%: inhibition at 10 µM (MDA-MB-231 [2]) | inhibition at 10 µM (Y79) | inhibition at 10 µM (MCF7) | inhibition at 10 µM [13] | inhibition at 10 µM (HeLa) | inhibition at 10 µM (SW13 [18]) | inhibition at 10 µM [21] | inhibition at 10 µM (U2OS) | inhibition at 10 µM [23]
Non-toxic: Activity (H9c2 [14]) | Activity [16]
80%: inhibition [6]
inactive: inhibition (Mus musculus [9]) | inhibition (Mus musculus [17])
active: inhibition [1] | inhibition [3] | inhibition (B16-F10) | inhibition [4] | inhibition [5] | inhibition [7] | inhibition [8] | inhibition [10] | inhibition (Mus musculus [11]) | inhibition [12] | inhibition (B16-F1) | inhibition (SW13 [19]) | inhibition [20] | inhibition (MDA-MB-231 [22])
Toxic: Activity (H9c2 [15])
66%: Activity [24]
